From patent US8694073B2, “Predicting efficacy of psychiatric treatment” (University of Utah Research Foundation, priority 2008, dated 2014) come the findings set out here.

Each structure is given as a SMILES string. Where “and” joins values, the source holds several entries; their conditions need not be identical. Equal entries are not always repeated.

The subject of one test is MDD subjects. Put plainly: 4-week open T3 augmentation of SSRI, HAMD-17 depression rating. The test is classed as in vivo, human. The source says: 19 depressed subjects were recruited through advertisements and clinical referrals for a treatment study at Massachusetts General Hospital between 2001 and 2003, and underwent ^31P MRS scans before and after antidepression treatment. All 19 depressed subjects were between ages of 18 and 65, and suffered from MDD, as determined by pre-antidepression treatment score of ≧16 on the HAMD-17 scale. All 19 MDD subjects had previously shown minimal or no response to treatment with an SSRI taken for ≧8 weeks, with ≧4 weeks at a stable dose (fluoxetine ≧40 mg/day, sertraline ≧100 mg/day, paroxetine ≧40 mg/day, citalopram ≧40 mg/day, escitalopram ≧20 mg/day).
The HAMD-17 scale was administered every 2 weeks.
Nonparametric Wilcoxon rank sum (Mann-Whitney U) test was used to compare baseline levels of ^31P MRS metabolites between MDD subjects and normal control subjects. Clinical outcome was defined as response to treatment (HAMD-17 reduction ≧50% during treatment).

The next test has as its system TSH. Briefly: TSH level by solid-phase radioimmunoassay before treatment and at 4-weeks follow-up. It counts as in vivo, human. As to conditions: MDD subjects n=19, after 4 weeks T3; baseline TSH 1.75 ± .71.

With `N[C@@H](Cc1cc(I)c(Oc2ccc(O)c(I)c2)c(I)c1)C(=O)O` [T3, triiodothyronine], in the test on MDD subjects (MDD subjects n=19, T3 50 μg daily added to existing SSRI, baseline HAMD-17 20.3±3.6), the “mean severity of depression HAMD-17 after 4 weeks of treatment” value amounted to 13.3±6.6. Moreover, the “treatment responders (HAMD-17 reduction ≧50%)” value in the test with MDD subjects (MDD subjects, T3 50 μg daily added to SSRI, 4 weeks, seven subjects) was 38.9% and 36.8%. Also, in the test with MDD subjects (MDD subjects, T3 50 μg daily added to SSRI, 4 weeks, six subjects), the “clinical remission (final HAMD-17<7)” value is 31.6%. The “Final TSH” value in the test with TSH is given as “.10 ± .24 mIU/L”.
